According to patent publication US10849918B2, “Composition for optic nerve protection” (TOHOKU TECHNO ARCH CO., LTD., priority 2015, dated 2020):

Tested on: retinal ganglion cells
Assay: Test 2: optic nerve protection in optic nerve crush injury murine model, oral administration
Type: in vivo, mice
Details: summary statement; oral or intraocular administration, optic nerve crush injury model and NMDA model
Method: The nerve protection effect of each ingredient was verified by using a rodent glaucoma pathological model of an optic nerve crush injury murine model.
Test animal: male C57BL/6 strain mice, 9-12 weeks old, each approximately 25 g
The experiment was conducted according to the following method. The number of samples in each group was 8.
(2) To the mice in the experimental groups, each ingredient prepared as shown in Table 2 was orally administered at a dosage as shown in Table 2 once a day from one week before the optic nerve crush treatment; to the mice in the control groups, 100 μL of distilled water or phosphate-buffered saline (containing no Ca or Mg, pH: 7.4, hereinafter abbreviated as “PBS(−)”) was administered likewise.
(3) The optic nerve crush treatment on the mice was performed under anesthesia by administering ketamine (100 mg/kg) and xylazine (5 mg/kg). The optic nerve crush treatment was performed on only single eyes, and the fellow eyes were untreated. After the optic nerve crush treatment was completed, an antibacterial ophthalmic ointment was instilled to the eyes of the mice. […]
(7) The number of cells labeled with Fluoro-Gold was counted to obtain an average number at the 12 sites. […]

## COc1ccc([C@@H]2CC(=O)c3c(O)cc(O[C@@H]4O[C@H](CO[C@@H]5O[C@@H](C)[C@H](O)[C@@H](O)[C@H]5O)[C@@H](O)[C@H](O)[C@H]4O)cc3O2)cc1O [hesperidin]
  protection effect on the death of retinal ganglion cells: excellent protection effect on the death of retinal ganglion cells
